Ki data for 61 molecules are collected here from the Kinase Knowledgebase extract (Sharma et al. 2016).

The structures appear in SMILES notation.

The assay deals with PIK3CG (human) (UniProt P48736). Kind of assay: Inhibition of PIK3CG Kinase Activity.
PIK3CG (human), sequence (P48736 whole entry, looked up): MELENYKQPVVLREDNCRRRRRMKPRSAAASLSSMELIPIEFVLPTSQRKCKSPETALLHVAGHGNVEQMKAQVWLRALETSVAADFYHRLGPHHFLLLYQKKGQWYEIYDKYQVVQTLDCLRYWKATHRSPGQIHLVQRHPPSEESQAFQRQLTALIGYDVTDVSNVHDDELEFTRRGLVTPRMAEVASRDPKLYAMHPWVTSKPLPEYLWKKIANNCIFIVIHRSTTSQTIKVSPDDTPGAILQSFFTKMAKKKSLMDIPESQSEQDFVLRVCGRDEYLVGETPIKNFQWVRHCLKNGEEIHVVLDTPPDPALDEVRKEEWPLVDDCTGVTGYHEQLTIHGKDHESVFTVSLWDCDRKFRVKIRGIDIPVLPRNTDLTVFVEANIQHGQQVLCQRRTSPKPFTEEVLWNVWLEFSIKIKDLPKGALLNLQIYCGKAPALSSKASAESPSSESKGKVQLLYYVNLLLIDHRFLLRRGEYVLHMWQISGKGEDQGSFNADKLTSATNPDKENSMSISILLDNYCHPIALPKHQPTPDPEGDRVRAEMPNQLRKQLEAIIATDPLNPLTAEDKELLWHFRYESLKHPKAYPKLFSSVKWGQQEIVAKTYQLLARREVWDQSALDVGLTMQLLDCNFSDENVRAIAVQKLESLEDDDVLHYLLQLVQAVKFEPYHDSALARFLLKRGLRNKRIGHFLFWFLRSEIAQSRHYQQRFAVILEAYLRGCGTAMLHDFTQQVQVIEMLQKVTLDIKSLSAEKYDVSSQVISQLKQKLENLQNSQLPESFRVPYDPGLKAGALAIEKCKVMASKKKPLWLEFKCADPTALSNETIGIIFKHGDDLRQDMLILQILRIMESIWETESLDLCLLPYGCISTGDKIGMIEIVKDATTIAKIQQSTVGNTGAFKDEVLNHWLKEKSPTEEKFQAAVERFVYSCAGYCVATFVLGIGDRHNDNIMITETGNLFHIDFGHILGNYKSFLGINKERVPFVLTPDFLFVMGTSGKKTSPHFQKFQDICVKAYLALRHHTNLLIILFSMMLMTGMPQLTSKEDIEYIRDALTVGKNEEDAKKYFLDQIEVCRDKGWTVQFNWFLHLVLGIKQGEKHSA
`CCn1cc(N2C(=O)c3c(C)cc(-c4cncc(OC)c4)nc3C2(C)C)cn1`: the Ki was below 100 nM.

In the case of `COc1cc(-c2ccc3c(c2)CN(c2cnn(C)c2)C3=O)cnc1OC`, the Ki fell in the range of 100 to 490 nM.

In turn, `Cc1cc(-c2cncc(OCC(F)(F)F)c2)nc2c1C(=O)N(c1cnn(CC(F)(F)F)c1)[C@@H]2C` returned a Ki below 100 nM.

Consider `CCn1cc(N2Cc3nc(-c4cnc(OC)c(OCC(F)F)c4)cc(C)c3C2=O)cn1`, for which the Ki is below 100 nM.

Take `CCOc1cncc(-c2cc(C)c3c(n2)C(C)(OC)N(c2cnn(CC(F)(F)F)c2)C3=O)c1` (stereo unspecified): the Ki was below 100 nM.

Take `COc1cc(-c2cc(C)c3c(n2)CN(c2ccn(CC(F)(F)F)n2)C3=O)cnc1OC`: the Ki is below 100 nM.

The molecule `COc1cc(-c2cc(C)c3c(n2)CN(c2ccn([C@@H]4CCOC4)n2)C3=O)cnc1F` displayed a Ki below 100 nM.

`COc1cc(-c2ccc3c(n2)CN(c2ccon2)C3=O)cnc1OC` showed a Ki below 100 nM.

For the molecule `COc1cc(-c2cc(C)c3c(n2)[C@@](C)(O)N(c2cnn(CC(F)(F)F)c2)C3=O)cnc1OC`, the Ki was below 100 nM.

With `COc1cc(-c2ccc3c(c2)CN(c2cn[nH]c2)C3=O)cnc1OC`, the Ki was below 100 nM.

`Cc1cc(-c2cncc(S(=O)(=O)N(C)C)c2)nc2c1C(=O)N(c1cnn(CC(F)(F)F)c1)C21CCOC1` (stereo unspecified) gave a Ki below 100 nM.

On to `COc1ncc(-c2cc(C)c3c(n2)C(C)(C)N(c2cnn(CC(F)(F)F)c2)C3=O)cc1C(=O)NCC#N`, for which the Ki is below 100 nM.

As to `COc1cc(-c2cc(C)c3c(n2)CN(c2ccn(C(F)F)c(=O)c2)C3=O)cnc1OC`, the Ki is below 100 nM.

The molecule `COc1cc(-c2ccc3c(n2)CN(c2ccc(=O)n(CC4OCCO4)c2)C3=O)cnc1OC` showed a Ki of 100 to 490 nM.

Consider `COc1ncc(-c2cc(C)c3c(n2)CN(c2cn[nH]c2)C3=O)cc1OCC(F)F`, for which the Ki is below 100 nM.

Molecule `COc1cc(-c2ccc3c(n2)CN(c2ccc(N4CCC(OC)CC4)nc2)C3=O)cnc1OC` came in with a Ki below 100 nM.

In turn, `COc1cc(-c2cc(C)c3c(n2)CN(c2cnn(CC(F)(F)F)c2)C3=O)ccn1` returned a Ki below 100 nM.

`COc1cncc(-c2cc(C)c3c(n2)CN(c2ccn(C[C@@H](C)F)n2)C3=O)c1`: the Ki is below 100 nM.

The molecule `COc1cc(-c2ccc3c(n2)CN(c2cnn(CC#N)c2)C3=O)cnc1OC` had a Ki below 100 nM.

In the case of `COc1cc(-c2ccc3c(c2)CN(c2ccn(C)n2)C3=O)cnc1OC`, the Ki was below 100 nM.

`COc1cc(-c2cc(C)c3c(n2)CN(c2cnn(CC#N)c2)C3=O)cnc1OC` had a Ki below 100 nM.

For `CCNC(=O)c1cc(-c2cc(C)c3c(n2)C2(CCOC2)N(c2cnn(CC(F)(F)F)c2)C3=O)cnc1OC` (stereo unspecified), the Ki was below 100 nM.

Take `Cc1cc(-c2cncc(C(=O)NC3CC3)c2)nc2c1C(=O)N(c1cnn(CC(F)(F)F)c1)C2`: the Ki was below 100 nM.

Take `COc1ncc(-c2cc(C)c3c(n2)C(C)N(c2cnn(CC(F)(F)F)c2)C3=O)cc1C(=O)O` (stereo unspecified): the Ki is below 100 nM.

For the molecule `CCOC1c2nc(-c3cnc(OC)c(OC)c3)cc(C)c2C(=O)N1c1cnn(CC(F)(F)F)c1` (stereo unspecified), the Ki was below 100 nM.

In the case of `CCOc1cncc(-c2cc(C)c3c(n2)[C@@]2(CCOC2)N(c2cnn(CC(F)(F)F)c2)C3=O)c1`, the Ki is below 100 nM.

`COc1cc(-c2ccc3c(n2)CN(c2cnn(CCn4ccc(C)n4)c2)C3=O)cnc1OC` had a Ki of 100 to 490 nM.

`CCc1cc(-c2cnc(OC)c(OC)c2)nc2c1C(=O)N(c1cn[nH]c1)C2(C)C` returned a Ki below 100 nM.

For the molecule `CCCn1cc(N2Cc3cc(-c4cnc(OC)c(OC)c4)ccc3C2=O)cn1`, the Ki was 100 to 490 nM.

`COc1cc(-c2ccc3c(n2)CN(c2ccn(CC4COCCO4)n2)C3=O)cnc1OC` (stereo unspecified) registered a Ki below 100 nM.

Take `COc1cc(-c2ccc3c(n2)C(C)(C)N(c2cnn(CC(F)(F)F)c2)C3=O)cnc1OC`: the Ki is below 100 nM.

On to `COc1cc(N2Cc3nc(-c4cnc(OC)c(OC)c4)cc(C)c3C2=O)cnc1CO`, for which the Ki was below 100 nM.

As to `COc1cc(-c2ccc3c(n2)CN(c2ccc(N4CCC(CCO)CC4)nc2)C3=O)cnc1OC`, the Ki was below 100 nM.

With `COc1ncc(-c2cc(C)c3c(c2)CN(c2cnn(CC(F)(F)F)c2)C3=O)nc1OC`, the inhibitory constant (Ki) was below 100 nM.

Regarding `Cc1cc(-c2cncc(F)c2)nc2c1C(=O)N(c1cnn(CC#N)c1)C2`, the Ki was below 100 nM.

In turn, `Cc1cc(-c2cncc(OC(F)F)c2)nc2c1C(=O)N(c1cnn(CC(F)F)c1)C2` yielded a Ki below 100 nM.

`COc1cc(-c2ccc3c(n2)CN(c2cnn(Cc4ccc(Cl)nc4)c2)C3=O)cnc1OC` came in with a Ki below 100 nM.

For `CNC(=O)c1cncc(-c2cc(C)c3c(n2)CN(c2cnn(CC(F)(F)F)c2)C3=O)c1`, the Ki is below 100 nM.

For the molecule `CCc1cc(N2Cc3nc(-c4cncc(OC(F)F)c4)ccc3C2=O)nn1C[C@H](C)O`, the Ki was in the range of 100 to 490 nM.

`COc1cc(-c2ccc3c(n2)C(N2CCOCC2)N(c2cnn(CC(F)(F)F)c2)C3=O)cnc1OC` (stereo unspecified): the Ki lay within 100 to 490 nM.

In turn, `CCOc1cncc(-c2cc(C)c3c(n2)C(C)(C)N(c2cnn(CC#N)c2)C3=O)c1` registered an inhibitory constant (Ki) below 100 nM.

Molecule `COc1ncc(-c2ccc3c(n2)CN(c2ccn(C)n2)C3=O)cc1OC(F)F` gave a Ki below 100 nM.

`CCOCCOc1ncc(-c2cc(C)c3c(n2)CN(c2cnn(CC(F)(F)F)c2)C3=O)cc1OC` returned a Ki of 100 to 490 nM.

As to `COc1cc(-c2ccc3c(n2)CN(c2cnn(C4CCOCC4)c2)C3=O)cnc1OC`, the inhibition constant Ki is below 100 nM.

In turn, `COc1cc(-c2cc(C)c3c(c2)CN(c2cnn(CC#N)c2)C3=O)cnc1OC` displayed a Ki below 100 nM.

In the case of `CCOc1cc(-c2cc(C)c3c(n2)C(C)(C)N(c2cnn(CC(F)F)c2)C3=O)cnc1C`, the Ki is below 100 nM.

`CCNC(=O)c1cc(-c2cc(C)c3c(n2)C(C)N(c2cnn(CC(F)(F)F)c2)C3=O)cnc1OC` (stereo unspecified): the Ki was below 100 nM.

Molecule `C#CCNC(=O)c1cncc(-c2cc(C)c3c(n2)C(C)N(c2cnn(CC(F)(F)F)c2)C3=O)c1` (stereo unspecified) showed a Ki below 100 nM.

As for `COc1ncc(-c2ccc3c(n2)CN(c2cnn(CC(F)(F)F)c2)C3=O)cc1CO`, the Ki fell in the range of 100 to 490 nM.

`CCOc1ncc(-c2cc(C)c3c(n2)C(OC)N(c2cnn(CC(F)(F)F)c2)C3=O)cc1OC` (stereo unspecified) registered a Ki below 100 nM.

Turning to `Cc1cc(-c2cncc(OCC(F)F)c2)nc2c1C(=O)N(c1cnn(CC(F)F)c1)C2C` (stereo unspecified), the Ki is below 100 nM.

`COc1cc(-c2cc(C)c3c(n2)C2(CCOCC2)N(c2cnn(CC(F)(F)F)c2)C3=O)cnc1OC(C)C` gave a Ki below 100 nM.

For the molecule `COc1cc(-c2ccc3c(n2)C(C)N(c2cccc(C(C)(C)C#N)n2)C3=O)cnc1OC` (stereo unspecified), the Ki is below 100 nM.

In turn, `CCn1ccc(N2C(=O)c3c(C)cc(-c4cncc(OCC(F)F)c4)nc3C2C)n1` (stereo unspecified) yielded a Ki below 100 nM.

Molecule `COc1cc(-c2ccc3c(n2)[C@H](C)N(c2ccn(CC(C)(C)F)n2)C3=O)cnc1OC` gave a Ki below 100 nM.

Molecule `COc1cncc(-c2cc(C)c3c(n2)C(C)(C)N(c2cnn(CC#N)c2)C3=O)c1` displayed a Ki below 100 nM.

As for `Cc1cc(-c2cncc(C(=O)NC3CC3)c2)nc2c1C(=O)N(c1cnn(CC(F)(F)F)c1)C2(C)C`, the Ki fell in the range of 100 to 490 nM.

Regarding `CCCCOCCOc1cncc(-c2cc(C)c3c(n2)CN(c2cnn(CC(F)(F)F)c2)C3=O)c1`, the Ki lay in the range of 100 to 490 nM.

Turning to `COc1cc(-c2cc(C)c3c(n2)[C@H](C)N(c2cnn(C[C@@H](C)O)c2)C3=O)cnc1OC`, the Ki was below 100 nM.

On to `COc1cc(-c2ccc3c(n2)CN(c2cnn(Cc4cncn4C)c2)C3=O)cnc1OC`, for which the Ki was below 100 nM.

Turning to `Cc1cc(-c2cncc(OC(F)F)c2)cc2c1C(=O)N(c1cnn(CC(F)(F)F)c1)C2`, the Ki is below 100 nM.

The Ki is the dissociation constant of the complex between target and ligand, obtained from inhibition or displacement. The low end stands for a stronger hold on the target, the high end for a looser hold on the target.
